Laboratory results taken from patent publication US12440476B2, “Agents that target telomerase reverse transcriptase (TERT) for treating cancer and sensitizing cancer cells to genotoxic therapy” (Northwestern University, priority 2022, dated 2025).

System: CT26 cells
Experiment: Senescence-associated beta-galactosidase (SA-β-Gal) assay
Assay type: cell-based, mouse
Conditions: non-toxic doses, 10 Gy, 5 days
Description: MCF7, Saos-2, or CT26 cells were seeded at 3×10^4 per well in 6-well plates and allowed to attach to plate overnight. For TERT inhibition, MCF7 cells were treated with DMSO vehicle, NU-2 (0.5 μM), NU-1 (0.5 μM), chrolactomycin (0.5 μM), BIBR 1532 (10 μM), or MST-312 (1 μM) for 1 h prior to IR, Saos-2 cells were treated with DMSO vehicle, NU-2 (1 μM), NU-1 (1 μM), chrolactomycin (1 μM), BIBR 1532 (20 μM), or MST-312 (1 μM) for 1 h prior to IR, and CT26 cells were treated with MSO vehicle, NU-2 (1 μM), NU-1 (1 μM), chrolactomycin (1 μM), BIBR 1532 (20 μM), or MST-312 (2 μM) for 1 h prior to IR. Then MCF7 and Saos-2 cells were irradiated with 0 or 6 Gy and CT26 cells with 0 or 10 Gy. After IR, MCF7 and Saos-2 cells were continuously cultured for 7 days and CT26 for 5 days, then fixed in 2% PFA and stained with staining buffer (1 mg/ml X-Gal (Golden Bio), 40 mM citric acid/sodium phosphate, 150 mM NaCl, 2 mM MgCl2, 3.3 mM K3[Fe(CN)6], 3.3 mM K4[Fe(CN)6], pH=6) for 16 h at 37° C., then washed with warm PBS three times and imaged in PBS within a week. Images were captured on a Zeiss Axiovert 200M microscope with a 20× Plan-NeoFluar objective and Axiocam digital camera. SA-β-Gal-positive and -negative cells were counted in more than 5 fields, yielding an average percentage indicated on each SA-β-Gal image as mean±SD. Three replicates were performed.
To examine the roles for STING, CT26 cells were seeded at 2×10^4 per well in 12-well plates and allowed to attach overnight. STING inhibitor C178 (0 or 4 μM) was added, followed by the addition of DMSO vehicle, NU-1 (1 μM), MST-312 (2 μM) or chrolactomycin (1 μM) for 1 h prior to 0 or 10 Gy. CT26 cells were cultured for 5 days, surviving cells were washed twice in PBS and cultured in fresh immune cell culture medium overnight. The CT26 cells were then cocultured with BMDCs for 12-16 h at a 1:2 ratio, and BMDCs were collected and analyzed after coculturing, as described above.

Question: Which “Senescence induction by IR” value does the source give for C=C1C(=O)[C@](C)(C(=O)OC)[C@H](CCc2cn(Cc3ccc(F)cc3F)nn2)O[C@@H]1C [NU-1] here?
Answer: enhanced senescence induction by IR
